Species on record: Rattus norvegicus
Experiment: Open TG-GATES - Regimen: Single
Type: toxicity, organism-based, Sprague-Dawley
Set-up: regimen Single, gender Male, age 6 weeks
Conditions: in vivo, iv, 0 mg/kg, route intravenous injection, dose level Control; for APTT / Bas / Eos / Fbg / Hb / Ht / Lym / MCH / MCHC / MCV / Mono / Neu / PT / Plat / RBC / Ret / WBC: tissue Blood; for KIDNEY_L / KIDNEY_R / KIDNEY_TOTAL: tissue Kidney; for LIVER: tissue Liver; for A/G / ALP / ALT / AST / BUN / CRE / Ca / Cl / DBIL / GLC / IP / K / LDH / Na / PL / RALB / TBIL / TC / TG / TP / gamma-GTP: tissue Plasma

SMILES: C[C@@H]1C[C@@H]([C@H](O)CC2CC(=O)NC(=O)C2)C(=O)[C@@H](C)C1 [CYCLOHEXIMIDE]
- TERMINAL_BW (3 h): 221.4 g
- APTT (3 h): 21.8 s
- Bas (3 h): 0%
- Eos (3 h): 1%
- Fbg (3 h): 315.6 mg/dL
- Hb (3 h): 13.1 g/dL
- Ht (3 h): 39.2%
- Lym (3 h): 75.6%
- MCH (3 h): 21.3 pg
- MCHC (3 h): 33.3%
- MCV (3 h): 64 fL
- Mono (3 h): 2.8%
- Neu (3 h): 19.4%
- PT (3 h): 16.2 s
- Plat (3 h): 120.1 x10_4/uL
- RBC (3 h): 612.2 x10_4/ul
- Ret (3 h): 8.7%
- WBC (3 h): 95.6 x10_2/uL
- KIDNEY_L (3 h): 1 g
- KIDNEY_R (3 h): 1 g
- KIDNEY_TOTAL (3 h): 2 g
- LIVER (3 h): 10.2 g
- A/G (3 h): 1.2
- ALP (3 h): 1480.4 IU/L
- ALT (3 h): 44.4 IU/L
- AST (3 h): 75.4 IU/L
- BUN (3 h): 11.4 mg/dL
- CRE (3 h): 0.1 mg/dL
- Ca (3 h): 10.4 mg/dL
- Cl (3 h): 106.8 meq/L
- DBIL (3 h): 0.004 mg/dL
- GLC (3 h): 187 mg/dL
- IP (3 h): 9.1 mg/dL
- K (3 h): 4 meq/L
- LDH (3 h): 171.8 IU/L
- Na (3 h): 141 meq/L
- PL (3 h): 130.8 mg/dL
- RALB (3 h): 2.9 g/dL
- TBIL (3 h): 0.024 mg/dL
- TC (3 h): 76.8 mg/dL
- TG (3 h): 49.2 mg/dL
- TP (3 h): 5.2 g/dL
- gamma-GTP (3 h): 1.4 IU/L
- TERMINAL_BW (6 h): 214.4 g
- APTT (6 h): 22.6 s
- Bas (6 h): 0%
- Eos (6 h): 1%
- Fbg (6 h): 314.4 mg/dL
- Hb (6 h): 13.4 g/dL
- Ht (6 h): 39.9%
- Lym (6 h): 78.2%
- MCH (6 h): 21.4 pg
- MCHC (6 h): 33.6%
- MCV (6 h): 64 fL
- Mono (6 h): 2.8%
- Neu (6 h): 17.2%
- PT (6 h): 15.5 s
- Plat (6 h): 113.8 x10_4/uL
- RBC (6 h): 624 x10_4/ul
- Ret (6 h): 8.7%
- WBC (6 h): 88.7 x10_2/uL
- KIDNEY_L (6 h): 1 g
- KIDNEY_R (6 h): 1 g
- KIDNEY_TOTAL (6 h): 2 g
- LIVER (6 h): 9.4 g
- A/G (6 h): 1.3
- ALP (6 h): 1423 IU/L
- ALT (6 h): 38.6 IU/L
- AST (6 h): 71.6 IU/L
- BUN (6 h): 10 mg/dL
- CRE (6 h): 0.1 mg/dL
- Ca (6 h): 10.5 mg/dL
- Cl (6 h): 107.2 meq/L
- DBIL (6 h): 0.002 mg/dL
- GLC (6 h): 177 mg/dL
- IP (6 h): 9.2 mg/dL
- K (6 h): 4.2 meq/L
- LDH (6 h): 198.8 IU/L
- Na (6 h): 140.8 meq/L
- PL (6 h): 139.6 mg/dL
- RALB (6 h): 2.9 g/dL
- TBIL (6 h): 0.036 mg/dL
- TC (6 h): 78.6 mg/dL
- TG (6 h): 52 mg/dL
- TP (6 h): 5.2 g/dL
- gamma-GTP (6 h): 1.2 IU/L
- TERMINAL_BW (9 h): 215.8 g
- APTT (9 h): 23.2 s
- Bas (9 h): 0%
- Eos (9 h): 0.6%
- Fbg (9 h): 313.4 mg/dL
- Hb (9 h): 12.9 g/dL
- Ht (9 h): 38.5%
- Lym (9 h): 78.8%
- MCH (9 h): 20.8 pg
- MCHC (9 h): 33.4%
- MCV (9 h): 62.2 fL
- Mono (9 h): 2%
- Neu (9 h): 17.8%
- PT (9 h): 15.8 s
- Plat (9 h): 109.2 x10_4/uL
- RBC (9 h): 620.6 x10_4/ul
- Ret (9 h): 8.1%
- WBC (9 h): 65.1 x10_2/uL
- KIDNEY_L (9 h): 1 g
- KIDNEY_R (9 h): 1 g
- KIDNEY_TOTAL (9 h): 2 g
- LIVER (9 h): 9 g
- A/G (9 h): 1.3
- ALP (9 h): 1329.2 IU/L
- ALT (9 h): 37.4 IU/L
- AST (9 h): 71 IU/L
- BUN (9 h): 10 mg/dL
- CRE (9 h): 0.1 mg/dL
- Ca (9 h): 10.4 mg/dL
- Cl (9 h): 106.4 meq/L
- DBIL (9 h): 0.002 mg/dL
- GLC (9 h): 176 mg/dL
- IP (9 h): 9.7 mg/dL
- K (9 h): 3.9 meq/L
- LDH (9 h): 164.6 IU/L
- Na (9 h): 142.4 meq/L
- PL (9 h): 125.8 mg/dL
- RALB (9 h): 3 g/dL
- TBIL (9 h): 0.036 mg/dL
- TC (9 h): 72.4 mg/dL
- TG (9 h): 37.6 mg/dL
- TP (9 h): 5.4 g/dL
- gamma-GTP (9 h): 1.4 IU/L
- TERMINAL_BW (24 h): 229.3 g
- APTT (24 h): 22.3 s
- Bas (24 h): 0%
- Eos (24 h): 1%
- Fbg (24 h): 319.8 mg/dL
- Hb (24 h): 13.5 g/dL
- Ht (24 h): 40.3%
- Lym (24 h): 80.6%
- MCH (24 h): 21 pg
- MCHC (24 h): 33.5%
- MCV (24 h): 62.5 fL
- Mono (24 h): 2.8%
- Neu (24 h): 14.6%
- PT (24 h): 16 s
- Plat (24 h): 119 x10_4/uL
- RBC (24 h): 643.8 x10_4/ul
- Ret (24 h): 8.7%
- WBC (24 h): 90.5 x10_2/uL
- KIDNEY_L (24 h): 1 g
- KIDNEY_R (24 h): 1 g
- KIDNEY_TOTAL (24 h): 2 g
- LIVER (24 h): 11 g
- A/G (24 h): 1.2
- ALP (24 h): 1510.6 IU/L
- ALT (24 h): 38.2 IU/L
- AST (24 h): 65.8 IU/L
- BUN (24 h): 16 mg/dL
- CRE (24 h): 0.1 mg/dL
- Ca (24 h): 10.8 mg/dL
- Cl (24 h): 106 meq/L
- DBIL (24 h): 0 mg/dL
- GLC (24 h): 202.2 mg/dL
- IP (24 h): 7.7 mg/dL
- K (24 h): 4.2 meq/L
- LDH (24 h): 179.2 IU/L
- Na (24 h): 140.4 meq/L
- PL (24 h): 142.8 mg/dL
- RALB (24 h): 3 g/dL

Reference: ChEMBL document CHEMBL3885861, “Open TG-GATES”
